Paper PMC7462607 (eLife, 2020)

Legend:
[1] = biological target: T1, 3xFLAG-CDK12/CCNK and DDB1 (Homo sapiens, UniProt Q9NYV4); experiment: Co-immunoprecipitation of CCNK and DDB1 with 3xFLAG-CDK12 complex; format: binding; conditions: A549 3xFLAG-CDK12 knock-in lysates
T1 construct: A549 3xFLAG-CDK12 knock-in cells were detached from plates by scraping; endogenous in cells; host or cells: A549 3xFLAG-CDK12 knock-in cells (lysate)
Procedure: Anti-FLAG M2 antibody (Sigma-Aldrich, MO, USA F3165) was coupled to magnetic epoxy beads (Beijing Yunci Technology Co., Beijing, China) at the ratio of 10 μg of anti-FLAG antibody/mg of beads in the presence of 1 M ammonium acetate and 0.1 M sodium phosphate, pH 7.4 at 37°C overnight. A549 3xFLAG-CDK12 knock-in cells were detached from plates by scraping, washed in DPBS, and then frozen in liquid nitrogen. Frozen cells were pulverized using a mixer mill MM 400 (Retsch, Haan, Germany) with two rounds of 1 min ball milling at 30 Hz. Per experiment, 25 mg of grinded cell powder was solubilized with 250 µL of IP buffer (50 mM HEPES, pH 7.4, 300 mM NaCl, 0.1% Tween-20) supplemented with 1x cOmplete, Mini, EDTA-free protease inhibitor cocktail (Roche, Bazel, Switzerland). The resulting lysates were centrifuged at 15,000 g for 10 min at 4°C. Clarified lysates were supplemented with HQ461 or DMSO and incubated at 4°C for 30 min. Afterwards, 0.2 mg of anti-FLAG-conjugated magnetic beads were mixed with clarified lysates for 15 min on a rotating platform at 4°C, followed by three washes with IP buffer supplemented with HQ461 or DMSO. Bound proteins were eluted from magnetic beads with 1 mg/ml of 3 × FLAG peptide (Sigma-Aldrich, MO, USA F4799) with agitation at 4°C for 30 min. Eluted proteins were subjected to SDS-PAGE and western blotting with anti-FLAG-HRP, anti-CCNK, and anti-DDB1. […]

[2] = tested on: POLII CTD Serine 2 phosphorylation; experiment: Western blotting of POLII CTD Serine 2 phosphorylation; format: cell-based, Homo sapiens
Procedure: Standard SDS-PAGE and western blotting procedures were used with the following modifications. For preparation of total lysates, cells were rinsed with DPBS to remove residual medium and then lysed in 20 mM HEPES-NaOH, pH 8.0, 10 mM NaCl, 2 mM MgCl2, 1% SDS freshly supplemented with 0.5 units/µL of benzonase and 1x cOmplete, Mini, EDTA-free protease inhibitor cocktail (Roche, Bazel, Switzerland). Protein concentrations of the resulting lysates were quantified by the BCA method. Between 30 to 60 µg of proteins were resolved on SDS-PAGE and transferred to nitrocellulose membranes with a pore size of 0.5 μm. Membranes were blocked in 5% nonfat milk PBST (0.1% v/v Tween-20) for 30 min before blotting with antibodies. […]

T1 sequence (Q9NYV4 whole entry): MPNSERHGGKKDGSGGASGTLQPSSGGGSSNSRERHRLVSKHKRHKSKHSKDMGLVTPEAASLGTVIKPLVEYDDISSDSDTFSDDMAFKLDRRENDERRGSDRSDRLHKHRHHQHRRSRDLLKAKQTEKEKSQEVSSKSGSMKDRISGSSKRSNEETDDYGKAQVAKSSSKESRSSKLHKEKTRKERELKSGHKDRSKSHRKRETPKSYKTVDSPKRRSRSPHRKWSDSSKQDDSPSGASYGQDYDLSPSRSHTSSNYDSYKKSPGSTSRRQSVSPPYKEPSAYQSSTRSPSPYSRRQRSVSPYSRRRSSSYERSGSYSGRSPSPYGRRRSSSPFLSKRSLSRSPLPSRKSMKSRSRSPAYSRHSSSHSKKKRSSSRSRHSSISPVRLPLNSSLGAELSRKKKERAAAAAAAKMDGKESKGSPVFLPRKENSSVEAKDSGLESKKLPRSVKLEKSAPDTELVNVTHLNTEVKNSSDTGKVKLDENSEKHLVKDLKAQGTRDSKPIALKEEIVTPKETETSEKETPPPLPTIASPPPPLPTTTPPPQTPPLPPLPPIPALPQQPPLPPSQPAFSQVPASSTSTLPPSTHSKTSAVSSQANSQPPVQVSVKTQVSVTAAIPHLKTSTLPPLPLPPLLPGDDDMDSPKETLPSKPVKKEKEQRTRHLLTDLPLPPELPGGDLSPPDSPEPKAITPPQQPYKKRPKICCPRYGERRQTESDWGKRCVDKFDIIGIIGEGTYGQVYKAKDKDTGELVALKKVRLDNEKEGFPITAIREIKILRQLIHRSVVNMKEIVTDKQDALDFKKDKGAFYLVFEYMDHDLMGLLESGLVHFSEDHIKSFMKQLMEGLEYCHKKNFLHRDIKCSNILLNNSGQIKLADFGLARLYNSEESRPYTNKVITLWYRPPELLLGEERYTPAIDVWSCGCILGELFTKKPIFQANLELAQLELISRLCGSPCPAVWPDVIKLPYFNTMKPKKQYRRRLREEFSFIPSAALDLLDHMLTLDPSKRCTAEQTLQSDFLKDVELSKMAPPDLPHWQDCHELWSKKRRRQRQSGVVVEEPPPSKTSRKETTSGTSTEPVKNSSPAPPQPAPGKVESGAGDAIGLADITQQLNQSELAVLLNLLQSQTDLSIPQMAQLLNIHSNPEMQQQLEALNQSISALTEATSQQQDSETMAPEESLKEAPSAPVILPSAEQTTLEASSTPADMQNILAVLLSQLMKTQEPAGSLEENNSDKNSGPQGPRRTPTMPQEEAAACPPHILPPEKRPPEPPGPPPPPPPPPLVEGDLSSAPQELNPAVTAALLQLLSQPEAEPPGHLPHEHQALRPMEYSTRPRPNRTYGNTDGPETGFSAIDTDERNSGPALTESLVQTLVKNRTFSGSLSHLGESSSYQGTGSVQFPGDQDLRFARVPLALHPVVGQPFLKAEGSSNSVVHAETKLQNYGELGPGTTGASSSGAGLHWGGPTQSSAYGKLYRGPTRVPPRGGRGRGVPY
T1 sequence (O75909 whole entry partner): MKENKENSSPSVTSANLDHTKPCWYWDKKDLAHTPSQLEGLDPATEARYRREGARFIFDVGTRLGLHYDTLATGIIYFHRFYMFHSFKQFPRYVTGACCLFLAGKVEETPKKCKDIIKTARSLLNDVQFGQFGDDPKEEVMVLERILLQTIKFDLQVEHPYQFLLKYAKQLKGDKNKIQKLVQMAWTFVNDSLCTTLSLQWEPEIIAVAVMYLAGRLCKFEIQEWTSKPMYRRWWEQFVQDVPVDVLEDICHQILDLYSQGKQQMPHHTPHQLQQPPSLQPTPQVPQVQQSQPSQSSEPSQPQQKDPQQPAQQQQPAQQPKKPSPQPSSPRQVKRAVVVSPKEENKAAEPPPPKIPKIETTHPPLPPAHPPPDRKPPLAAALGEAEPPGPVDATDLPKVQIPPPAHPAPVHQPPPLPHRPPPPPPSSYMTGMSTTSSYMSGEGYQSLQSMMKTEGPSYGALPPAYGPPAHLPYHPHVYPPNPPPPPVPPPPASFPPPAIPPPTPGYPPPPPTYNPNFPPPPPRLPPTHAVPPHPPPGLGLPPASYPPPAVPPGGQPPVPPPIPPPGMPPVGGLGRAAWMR
T1 sequence (Q16531 2-1140 partner limits assumed): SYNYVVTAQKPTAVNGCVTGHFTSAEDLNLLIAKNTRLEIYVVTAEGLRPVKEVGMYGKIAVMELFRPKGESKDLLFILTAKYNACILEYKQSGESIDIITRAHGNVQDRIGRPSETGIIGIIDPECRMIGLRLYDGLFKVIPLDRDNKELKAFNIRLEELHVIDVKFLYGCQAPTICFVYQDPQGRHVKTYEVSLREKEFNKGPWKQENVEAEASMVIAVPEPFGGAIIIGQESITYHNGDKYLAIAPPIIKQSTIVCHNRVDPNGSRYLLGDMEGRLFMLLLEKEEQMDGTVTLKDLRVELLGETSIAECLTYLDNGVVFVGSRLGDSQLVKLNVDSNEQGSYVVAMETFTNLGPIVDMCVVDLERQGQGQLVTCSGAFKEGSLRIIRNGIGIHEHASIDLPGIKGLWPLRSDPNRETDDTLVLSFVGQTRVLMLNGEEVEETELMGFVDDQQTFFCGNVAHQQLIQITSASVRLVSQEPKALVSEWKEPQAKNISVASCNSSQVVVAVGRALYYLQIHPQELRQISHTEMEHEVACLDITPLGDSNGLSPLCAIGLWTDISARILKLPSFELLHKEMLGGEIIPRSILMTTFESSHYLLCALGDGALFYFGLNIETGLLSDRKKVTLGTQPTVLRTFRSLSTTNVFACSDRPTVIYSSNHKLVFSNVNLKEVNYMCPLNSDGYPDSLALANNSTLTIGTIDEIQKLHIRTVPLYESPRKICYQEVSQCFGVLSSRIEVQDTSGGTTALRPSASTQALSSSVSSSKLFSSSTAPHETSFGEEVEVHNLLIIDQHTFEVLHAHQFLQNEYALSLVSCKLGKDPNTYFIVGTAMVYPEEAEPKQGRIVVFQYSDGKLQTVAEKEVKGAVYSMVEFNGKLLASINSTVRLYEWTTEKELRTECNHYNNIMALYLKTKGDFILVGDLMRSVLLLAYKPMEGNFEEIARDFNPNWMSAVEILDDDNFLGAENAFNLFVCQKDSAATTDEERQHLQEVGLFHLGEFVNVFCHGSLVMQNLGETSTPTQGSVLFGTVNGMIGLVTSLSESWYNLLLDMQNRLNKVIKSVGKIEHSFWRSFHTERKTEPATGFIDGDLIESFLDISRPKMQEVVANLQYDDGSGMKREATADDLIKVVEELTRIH

SMILES: Cc1cccc(Nc2nc(CC(=O)Nc3ncc(C)s3)cs2)n1 [HQ461, 2-(2-((6-methylpyridin-2-yl)amino)thiazol-4-yl)-N-(5-methylthiazol-2-yl)acetamide]
- recruitment of DDB1 to CDK12/CCNK (coimmunoprecipitation) [1]: DDB1 was only detected with the CDK12/CCNK complex isolated from lysates treated with HQ461
- inhibitory effect on POLII CTD Serine 2 phosphorylation ([2]; A549 with CDK12 G731E or G731R mutation): abolished
- POLII CTD Serine 2 phosphorylation ([2]; parental A549): reduced POLII CTD Serine 2 phosphorylation
